# Reference: PubChem BioAssay AID2060359 (Molecular Pharmacology Branch, DTP, NCI, 2025)
# Test system: 276233-004-R-J1-PDC spheroids with HUVEC/MSC, viability
# Experiment: Anticancer human tumor 276233-004-R-J1-PDC patient-derived colon adenocarcinoma cell line growth inhibition [TAK]
# Conditions: for IC50: curve of first compound; for viability, T/C: stronger effect = lower value
# In short: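 Spheroids of 60% malignant cells, 25% HUVEC and 15% hMSC were exposed to targeted agents combined with TAK-243 or ipatasertib. Concentrations started at or near clinical Cmax (10 microM if unknown) and descended in half-log steps.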
# 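Further: spheroids exposed to drugs for seven days before the viability read.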
smiles,measurement,setting,value
CC(C)CC(NC(=O)CNC(=O)c1cc(Cl)ccc1Cl)B1OC(=O)CC(CC(=O)O)(C(=O)O)O1 (stereo not given) + CC(C)NCC(C(=O)N1CCN(c2ncnc3c2C(C)CC3O)CC1)c1ccc(Cl)cc1,IC50,second compound 0.3 µM,53.9 nM
same,IC50,second compound 0.949 µM,52.3 nM
same,IC50,second compound 3 µM,42.1 nM
same,IC50,second compound 9.49 µM,31.7 nM
same,IC50,second compound 30 µM,17.5 nM
same,"viability, T/C","second compound 0.3 µM, first compound 0.000316 µM",112%
same,"viability, T/C","second compound 0.3 µM, first compound 0.001 µM",103%
same,"viability, T/C","second compound 0.3 µM, first compound 0.00316 µM",102%
same,"viability, T/C","second compound 0.3 µM, first compound 0.01 µM",106%
same,"viability, T/C","second compound 0.3 µM, first compound 0.0316 µM",81.2%
same,"viability, T/C","second compound 0.3 µM, first compound 0.1 µM",14.1%
same,"viability, T/C","second compound 0.949 µM, first compound 0.000316 µM",112%
same,"viability, T/C","second compound 0.949 µM, first compound 0.001 µM",95.7%
same,"viability, T/C","second compound 0.949 µM, first compound 0.00316 µM",101%
same,"viability, T/C","second compound 0.949 µM, first compound 0.01 µM",91.3%
same,"viability, T/C","second compound 0.949 µM, first compound 0.0316 µM",82.1%
same,"viability, T/C","second compound 0.949 µM, first compound 0.1 µM",12%
same,"viability, T/C","second compound 3 µM, first compound 0.000316 µM",90.4%
same,"viability, T/C","second compound 3 µM, first compound 0.001 µM",89.6%
same,"viability, T/C","second compound 3 µM, first compound 0.00316 µM",84.3%
same,"viability, T/C","second compound 3 µM, first compound 0.01 µM",79.4%
same,"viability, T/C","second compound 3 µM, first compound 0.0316 µM",64.4%
same,"viability, T/C","second compound 3 µM, first compound 0.1 µM",10.9%
same,"viability, T/C","second compound 9.49 µM, first compound 0.000316 µM",74.6%
same,"viability, T/C","second compound 9.49 µM, first compound 0.001 µM",84.8%
same,"viability, T/C","second compound 9.49 µM, first compound 0.00316 µM",65.1%
same,"viability, T/C","second compound 9.49 µM, first compound 0.01 µM",71.7%
same,"viability, T/C","second compound 9.49 µM, first compound 0.0316 µM",49.2%
same,"viability, T/C","second compound 9.49 µM, first compound 0.1 µM",13.5%
same,"viability, T/C","second compound 30 µM, first compound 0.000316 µM",68.2%
same,"viability, T/C","second compound 30 µM, first compound 0.001 µM",84.8%
same,"viability, T/C","second compound 30 µM, first compound 0.00316 µM",60.5%
same,"viability, T/C","second compound 30 µM, first compound 0.01 µM",63.7%
same,"viability, T/C","second compound 30 µM, first compound 0.0316 µM",38.3%
same,"viability, T/C","second compound 30 µM, first compound 0.1 µM",17.2%
